# Measurements published in US11225675B2, “D-lactate dehydrogenase, engineered strain containing D-lactate dehydrogenase and construction method and use of engineered strain” (Shanghai Jiao Tong University, priority 2017, dated 2022).
# Tests used:
# [1] = target: T1, D-lactate dehydrogenases LdhTi (Thermodesulfatator indicus, UniProt F8A9V0); assay: Enzymatic characteristic identification (substrate spectrum) of D-lactate dehydrogenase LdhTi, NADH/NAD at 340 nm; assay type: biochemical; settings: for whether LdhTi catalyzes the substrate (in words) / Km / kcat: 50 mM phosphate buffer pH 7.0, 0.2 mM NADH or NAD+, 37° C.; for Km / kcat: substrate of purified LdhTi, “—” = enzyme has no activity for the substrate
# Description: A reaction system is consisting of: 50 mM phosphate buffer solution (pH 7.0), 0.2 mM NADH or NAD^+ as coenzyme, a suitable amount of D-lactate dehydrogenases LdhTi and substrates with different concentrations, reacted at 37° C. An enzyme activity determination method is to determine oxidization of NADH or reduction of NAD at ultraviolet wavelength of 340 nm, wherein one enzyme activity unit is defined as the enzyme amount needed for oxidizing or reducing 1 μmoL NADH or NAD in one minute.
# [2] = substrate: C[C@@H](O)C(=O)O; assay: as above; assay type: biochemical, Thermodesulfatator indicus; settings: other: substrate of purified LdhTi, 50 mM phosphate buffer pH 7.0, 0.2 mM NADH or NAD+, 37° C., “—” = enzyme has no activity for the substrate
# [3] = substrate: CC(=O)C(=O)O; assay: as above; assay type: biochemical, Thermodesulfatator indicus; settings: other: substrate of purified LdhTi, 50 mM phosphate buffer pH 7.0, 0.2 mM NADH or NAD+, 37° C., “—” = enzyme has no activity for the substrate
# [4] = substrate: O=C(O)C(=O)Cc1ccccc1; assay: purified protein, by the assay type; settings: other: substrate of purified LdhTi, 50 mM phosphate buffer pH 7.0, 0.2 mM NADH or NAD+, 37° C., “—” = enzyme has no activity for the substrate
# [5] = target: T1, D-lactate dehydrogenases LdhTi; assay: Determination of the optimal reaction pH value of D-lactate dehydrogenases LdhTi; assay type: biochemical; settings: 37° C., 20 mM pyruvic acid, 0.2 mM NADH, pH range 3.0-11.0, FIG. 3
# Description: An enzyme activity determination method is to determine change in NADH at ultraviolet wavelength of 340 nm, and one enzyme activity unit is defined as the enzyme amount needed for oxidizing 1 μmoL of NADH in one minute. At 37° C., by using 20 mM pyruvic acid as a substrate and 0.2 mM NADH as a coenzyme, the change of enzyme activity of the D-lactate dehydrogenase within a pH range of 3.0-11.0 was determined. A buffer system is consisting of: 50 mM citric acid-sodium citrate buffer solution with pH of 3.0-7.0; 50 mM phosphate buffer solution with pH of 7.0-9.0; and 50 mM sodium carbonate-sodium hydrogen carbonate buffer solution with pH of 9.0-11.0. Experiments were repeated thrice. […] Relative enzyme activities in FIG. 3 are relative enzyme activities, which are obtained by: determining enzyme activities at different pH values, and correspondingly converting the enzyme activity values at other pH values on the basis that the highest value at pH 6.0 is 100%.
# [6] = target: T1, D-lactate dehydrogenases LdhTi; assay: Determination of the optimal reaction temperature of D-lactate dehydrogenases LdhTi; assay type: biochemical; settings: 20 mM pyruvic acid, 0.2 mM NADH, 20 mM phosphate buffer pH 7.0, 30° C. to 100° C., FIG. 4
# Description: An enzyme activity determination method is to determine change in NADH at ultraviolet wavelength of 340 nm, and one enzyme activity unit is defined as the enzyme amount needed for oxidizing 1 μmoL of NADH in one minute. Conditions for determination of the optimal reaction temperature of D-lactate dehydrogenases were as follows: 20 mM pyruvic acid as a substrate, 0.2 mM NADH as a coenzyme and 20 mM phosphate buffer solution (pH 7.0) system are adopted; and enzyme activities from 30° C. to 100° C. were respectively determined, and experiments were repeated thrice. […] Relative enzyme activities in FIG. 4 are relative enzyme activities, which are obtained by: determining enzyme activities at different temperature conditions, and correspondingly converting the enzyme activity values at other temperature conditions on the basis that the highest value at 70° C. is 100%.
molecule,measurement,setting,value
"C[C@@H](O)C(=O)O [D-lactic Acid, D-lactic acid]",whether LdhTi catalyzes the substrate (in words),[1],can catalyze
"O=C(O)C(O)CO (centres unmarked) [Glyceric Acid, glyceric acid]",whether LdhTi catalyzes the substrate (in words),[1],no activity
"O=CC(=O)O [Glyoxylic Acid, glyoxylic acid]",whether LdhTi catalyzes the substrate (in words),[1],can catalyze
same,Km,[1],1760 ± 80 µM
same,kcat,[1],2.297 ± 0.0517 s⁻¹
"C[C@H](O)C(=O)O [L-lactic Acid, L-lactic acid]",whether LdhTi catalyzes the substrate (in words),[1],no activity
"O=C(O)CC(=O)C(=O)O [Oxaloacetic Acid, oxaloacetic acid]",whether LdhTi catalyzes the substrate (in words),[1],can catalyze
same,Km,[1],1320 ± 50 µM
same,kcat,[1],4.473 ± 0.0983 s⁻¹
"O=C(O)C(=O)Cc1ccccc1 [Phenylpyruvic Acid, phenylpyruvic acid]",whether LdhTi catalyzes the substrate (in words),[1],can catalyze
"CC(=O)C(=O)O [Pyruvic Acid, pyruvic acid]",whether LdhTi catalyzes the substrate (in words),[1],can catalyze
same,catalytic efficiency of LdhTi for the substrate (in words),[1]; compared among the tested substrates,highest catalytic efficiency
D-lactate dehydrogenases LdhTi (Thermodesulfatator indicus DSM 15286) (protein) MKVIFFSMHPYEEEFLGPILPSDWDVEMTPDFLDETTVEKAKGAQVVSLFVSDKADGPVLEALHSYGVGLLALRSAGYDHIDIETAKRLGIKVVNVPAYSPHAIADHTLAIMLALIRRLHRAHDKVRLGDFDLDGLMGFDLNGKVAGVIGLGKIGRLVATRLKAFGCKVLGYDPYIQPEIVENVDLDTLITQADIISIHCPLTRENFHMFNEETFKRMKPGAILVNTARGGLIDTKALLEALKSGKLGGAALDVYEYERGLFFKNHQKEGIKDPYLAQLLGLANVVLTGHQAFLTREAVKNIEETTVENILEWQKNPQAKLKNEI,Km,[2],5410 ± 280 µM
same,kcat,[2],0.105 ± 0.005 s⁻¹
same,kcat/Km,[2],19.3 ± 0.5 M⁻¹ s⁻¹
same,Km,[3],50 ± 10 µM
same,kcat,[3],1.08 ± 0.0283 s⁻¹
same,kcat/Km,[3],20700 ± 667 M⁻¹ s⁻¹
same,Km,[4],4580 ± 240 µM
same,kcat,[4],0.295 s⁻¹
same,kcat/Km,[4],64.3 M⁻¹ s⁻¹
"LdhTi: D-lactate dehydrogenase from Thermodesulfatator indicus DSM 15286, amino acid sequence SEQ ID No. 1, expressed in E. coli and purified (protein, Thermodesulfatator indicus DSM 15286) MKVIFFSMHPYEEEFLGPILPSDWDVEMTPDFLDETTVEKAKGAQVVSLFVSDKADGPVLEALHSYGVGLLALRSAGYDHIDIETAKRLGIKVVNVPAYSPHAIADHTLAIMLALIRRLHRAHDKVRLGDFDLDGLMGFDLNGKVAGVIGLGKIGRLVATRLKAFGCKVLGYDPYIQPEIVENVDLDTLITQADIISIHCPLTRENFHMFNEETFKRMKPGAILVNTARGGLIDTKALLEALKSGKLGGAALDVYEYERGLFFKNHQKEGIKDPYLAQLLGLANVVLTGHQAFLTREAVKNIEETTVENILEWQKNPQAKLKNEI",optimal reaction pH value,[5],6.0
same,optimal reaction temperature,[6],70 °C
